This passage reports IC50 results from patent US8765762B2, “Pyrazolopyridazines and methods for treating retinal-degerative diseases and hearing loss associated with usher syndrome” (Usher III Initiative, priority 2012, dated 2014).

For this assay, the system named is N48K Clarin-1. The assay can be described thus: Restoration of expression of N48K Clarin-1 (24 hour incubation), Example 20. The note with it: HEK293-Clarin-1 N48K-HA D9 cell line; 24 hr incubation with compound; HA-Clarin-1 staining per cell. It counts as cell-based. As for the experimental part:
Assay Method Showing Activity of Compounds of the Invention that Restore Expression of N48K Clarin-1 (24 Hour Incubation)
Clarin-1 is the protein encoded by the gene mutated in Usher III Syndrome (Adato et al., 2002). The most prevalent mutation in Clarin-1 in North America is N48K, which is reported to cause loss of glycosylation and a trafficking defect (Tian et al., 2009). […] Thus it is believed that restoring the trafficking of N48K Clarin-1 to the cell surface provides an avenue of intervention for Usher III Syndrome. […]
The HA-tagged N48K Clarin-1 was detected with an antibody against the HA tag (HA.11 Clone 16B12 Monoclonal antibody, Covance #MMS-101P) at a dilution of 1:1000 in PBS containing Triton X-100. […] The imaging of the stained cells was performed on an InCell 1000 High Content Imager (GE Healthcare), reading out the Cy3 channel for N48K Clarin-1 and the DAPI channel for nuclei. The images were analyzed and quantitated using a specific algorithm. This algorithm measured the HA-Clarin-1 staining for each cell based on the additional nuclear segmentation of the DAPI signal (FIG. 1). This algorithm measured the intensity per cell, and thus it is less sensitive for variation in cell number. Per well, approximately 2,000 cells were measured to achieve an average density per cell measurement.

In the case of `O=C(Cn1nc(-c2ccccc2)c2c(Cl)c(-c3cccc(F)c3)nnc21)N1CCCC1` [Compound 11, 2-[4-chloro-5-(3-fluorophenyl)-3-phenyl-pyrazolo[3,4-c]pyridazin-1-yl]-1-pyrrolidin-1-yl-ethanone], the IC50 was less than 2000 nM.

Usually IC50 stands for the concentration at which inhibition is half-maximal.
